According to patent publication US20260325685A1, “Radiopharmaceutical Compositions Targeting Carbonic Anhydrase IX and Uses Thereof” (RayzeBio, Inc., priority 2023, published 2026):
Where two headings read alike, the source gives them in different places.

How the values were obtained:
human CA-XII = biological target: T1, human CA-XII (Homo sapiens, UniProt O43570); assay: Surface Plasmon Resonance (SPR) binding kinetics to recombinant human CA-XII (Biacore 8K, single-cycle kinetics, 1:1 binding model)
T1 construct: purchased Creative BioMart CA12-261H
T1 sequence (O43570 25-354): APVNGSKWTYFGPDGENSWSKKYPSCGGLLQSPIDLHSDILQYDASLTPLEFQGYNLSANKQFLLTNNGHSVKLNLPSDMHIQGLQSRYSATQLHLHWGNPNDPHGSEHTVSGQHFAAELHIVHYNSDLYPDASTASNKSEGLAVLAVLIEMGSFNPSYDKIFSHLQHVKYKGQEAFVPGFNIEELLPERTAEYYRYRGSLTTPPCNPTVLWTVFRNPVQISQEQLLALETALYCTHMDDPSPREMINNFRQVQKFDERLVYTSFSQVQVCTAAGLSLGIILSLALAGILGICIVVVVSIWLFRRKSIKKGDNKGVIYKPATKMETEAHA
How it was run: (§1)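 Using captured protein at 1200-1800 RU, we injected compound at 100-0.39 nM in 1% DMSO buffer, pH 7.4, 25° C, then corrected curves for reference and DMSO to obtain rate constants.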

human CA-IX = biological target: T2, human CA-IX (Homo sapiens, UniProt Q16790); assay: Surface Plasmon Resonance (SPR) binding kinetics to recombinant human CA-IX (Biacore 8K, single-cycle kinetics, 1:1 binding model)
T2 construct: purchased Acro CA9-H82E3
How it was run: as §1

[1] = Chelated Metal: Lu-175, 25° C., pH 7.4, read-out: CAXII KD
[2] = Chelated Metal: Lu-175; SPR, 25° C., pH 7.4; read-out: CAIX KD
[3] = read-out: CAXII KD, Chelated Metal: Lu-175, 25° C., pH 7.4
[4] = read-out: CAIX KD; Chelated Metal: Lu-175; SPR, 25° C., pH 7.4

SMILES | Kd (human CA-XII; [1]) [nM] | Kd (human CA-IX; [2]) [nM] | other results
CC(CCC(=O)N[C@@H](CC(=O)N[C@@H](CC(=O)N[C@@H](CCCn1cc(C2CCC(C(=O)Nc3nnc(S(N)(=O)=O)s3)CC2)nn1)C(=O)NCCOCCOCCNC(=O)CN1CCN(CC(=O)O)CCN(CC(=O)O)CCN(CC(=O)O)CC1)C(=O)O)C(=O)O)(c1ccc(O)cc1)c1ccc(O)cc1.[Lu+3] (stereo partly shown) [Compound 100.3] | 2.5 to 10 | < 1 | 
CC(CCC(=O)N[C@@H](CC(=O)N[C@@H](CC(=O)N1CCN(C(=O)CN2CCN(CC(=O)O)CCN(CC(=O)O)CCN(CC(=O)O)CC2)C[C@H]1C(=O)NCCn1cc(C23CC(C(=O)Nc4nnc(S(N)(=O)=O)s4)(C2)C3)nn1)C(=O)O)C(=O)O)(c1ccc(O)cc1)c1ccc(O)cc1.[Lu+3] [Compound 106] |  |  | Kd (human CA-XII; [3]): 2.5 to 10 nM; Kd (human CA-IX; [4]): < 1 nM
C[C@H](Nc1c(F)c(S(N)(=O)=O)c(F)c(F)c1S(=O)(=O)CCOCc1cn(CCNC(=O)[C@H]2CN(C(=O)CN3CCN(CC(=O)O)CCN(CC(=O)O)CCN(CC(=O)O)CC3)CCN2C(=O)C[C@H](NC(=O)[C@@H]2COCCN2C(=O)CCCc2ccc(O)cc2)C(=O)O)nn1)C1CCCC1.[Lu+3] [Compound 107.42] | 2.5 to 10 | < 1 | 
CC(CCC(=O)N[C@@H](CC(=O)N[C@@H](CC(=O)N[C@@H](CCCCn1cc(C23CCC(C(=O)Nc4nnc(S(N)(=O)=O)s4)(CC2)C3)nn1)C(=O)NCC1(C(=O)O)CN(C(=O)CN2CCN(CC(=O)O)CCN(CC(=O)O)CCN(CC(=O)O)CC2)C1)C(=O)O)C(=O)O)(c1ccc(O)cc1)c1ccc(O)cc1.[Lu+3] [Compound 100.19] | < 1 | < 1 | 
NS(=O)(=O)c1nnc(NC(=O)C23CC(c4cn(CCNC(=O)[C@@H]5CN(C(=O)CN6CCN(CC(=O)O)CCN(CC(=O)O)CCN(CC(=O)O)CC6)CCN5C(=O)C[C@H](NC(=O)C[C@H](NC(=O)CCCc5ccc6c(c5)CCCC6)C(=O)O)C(=O)O)nn4)(C2)C3)s1.[Lu+3] [Compound 109.36] | 2.5 to 10 | 1 to 2.5 | 
NS(=O)(=O)c1nnc(NC(=O)C23CC(c4cn(CCNC(=O)[C@@H]5CN(C(=O)CN6CCN(CC(=O)O)CCN(CC(=O)O)CCN(CC(=O)O)CC6)CCN5C(=O)CNC(=O)C5(C(=O)O)CCN(C(=O)Cc6ccc(C7CC7)cc6)CC5)nn4)(C2)C3)s1.[Lu+3] [Compound 112.12] | > 10 | 1 to 2.5 | 
CC(CCCC(=O)N1CCC(C(=O)O)(C(=O)NCC(=O)N2CCN(C(=O)CN3CCN(CC(=O)O)CCN(CC(=O)O)CCN(CC(=O)O)CC3)C[C@@H]2C(=O)NCCn2cc(C34CC(C(=O)Nc5nnc(S(N)(=O)=O)s5)(C3)C4)nn2)CC1)(c1ccc(O)cc1)c1ccc(O)cc1.[Lu+3] [Compound 107.12] | > 10 | 1 to 2.5 | 
CC(CCCC(=O)N1CCOC[C@H]1C(=O)N[C@@H](CC(=O)N1CCN(C(=O)CN2CCN(CC(=O)O)CCN(CC(=O)O)CCN(CC(=O)O)CC2)C[C@@H]1C(=O)NCCn1cc(C23CC(C(=O)Nc4nnc(S(N)(=O)=O)s4)(C2)C3)nn1)C(=O)O)(c1ccc(O)cc1)c1ccc(O)cc1.[Lu+3] [Compound 108.2] | > 10 | < 1 | 
CC(CCC(=O)N[C@@H](CC(=O)N[C@@H](CCC(=O)N1CCN(C(=O)CN2CCN(CC(=O)O)CCN(CC(=O)O)CCN(CC(=O)O)CC2)C[C@@H]1Cn1cc(C23CC(C(=O)Nc4nnc(S(N)(=O)=O)s4)(C2)C3)nn1)C(=O)O)C(=O)O)(c1ccc(O)cc1)c1ccc(O)cc1.[Lu+3] [Compound 107.14] | < 1 | < 1 | 
CC(CCC(=O)N[C@@H](CC(=O)N[C@@H](CC(=O)NC1(CCCCn2cc(CCCC(=O)Nc3nnc(S(N)(=O)=O)s3)nn2)CCN(C(=O)OCCOCCNC(=O)CN2CCN(CC(=O)O)CCN(CC(=O)O)CCN(CC(=O)O)CC2)CC1)C(=O)O)C(=O)O)(c1ccc(O)cc1)c1ccc(O)cc1.[Lu+3] [Compound 116.2] | 2.5 to 10 | 1 to 2.5 | 
NS(=O)(=O)c1nnc(NC(=O)C23CC(c4cn(CCNC(=O)[C@@H]5CN(C(=O)CN6CCN(CC(=O)O)CCN(CC(=O)O)CCN(CC(=O)O)CC6)CCN5C(=O)CNC(=O)C5(C(=O)O)CCN(C(=O)CCC6CCCCCC6)CC5)nn4)(C2)C3)s1.[Lu+3] [Compound 112.7] | > 10 | < 1 | 
NS(=O)(=O)c1nnc(NC(=O)C23CC(c4cn(CCNC(=O)[C@@H]5CN(C(=O)CN6CCN(CC(=O)O)CCN(CC(=O)O)CCN(CC(=O)O)CC6)CCN5C(=O)C[C@H](Nc5ncc(C(=O)N6CCC(c7ccc(O)cc7)(c7ccc(O)cc7)CC6)cn5)C(=O)O)nn4)(C2)C3)s1.[Lu+3] [Compound 111.4] | > 10 | 2.5 to 10 | 
NS(=O)(=O)c1nnc(NC(=O)C23CC(c4cn(CCNC(=O)[C@@H]5CN(C(=O)CN6CCN(CC(=O)O)CCN(CC(=O)O)CCN(CC(=O)O)CC6)CCN5C(=O)CNC(=O)C5(C(=O)O)CCN(C(=O)CC6CC7(CCC7)C6)CC5)nn4)(C2)C3)s1.[Lu+3] [Compound 112.8] | 2.5 to 10 | < 1 | 
NC(=O)C1(C(=O)NCC(=O)N2CCN(C(=O)CN3CCN(CC(=O)O)CCN(CC(=O)O)CCN(CC(=O)O)CC3)C[C@H]2C(=O)NCCn2cc(C34CC(C(=O)Nc5nnc(S(N)(=O)=O)s5)(C3)C4)nn2)CCN(C(=O)c2ccc(C3CC3)nn2)CC1.[Lu+3] [Compound 113] |  |  | Kd (human CA-XII; [3]): > 10 nM; Kd (human CA-IX; [4]): 2.5 to 10 nM
NS(=O)(=O)c1nnc(NC(=O)C23CCC(c4cn(CCNC(=O)[C@@H]5CN(C(=O)CCCc6ccc(O)cc6)CCN5C(=O)CC[C@H](NC(=O)C[C@H](NC(=O)CN5CCN(CC(=O)O)CCN(CC(=O)O)CCN(CC(=O)O)CC5)C(=O)O)C(=O)O)nn4)(CC2)CC3)s1.[Lu+3] [Compound 132] |  |  | Kd (human CA-XII; [3]): 1 to 2.5 nM; Kd (human CA-IX; [4]): < 1 nM
CC1(C)CN(C(=O)CCCC(C)(c2ccc(O)cc2)c2ccc(O)cc2)[C@H](C(=O)N[C@@H](CC(=O)N2CCN(C(=O)CN3CCN(CC(=O)O)CCN(CC(=O)O)CCN(CC(=O)O)CC3)C[C@@H]2C(=O)NCCn2cc(C34CC(C(=O)Nc5nnc(S(N)(=O)=O)s5)(C3)C4)nn2)C(=O)O)CO1.[Lu+3] [Compound 107.32] | > 10 | < 1 | 
Cc1cc(C2CC2)ccc1C(=O)N[C@@H](CC(=O)N[C@@H](CC(=O)N1CCN(C(=O)CN2CCN(CC(=O)O)CCN(CC(=O)O)CCN(CC(=O)O)CC2)C[C@H]1C(=O)NCCn1cc(C23CC(C(=O)Nc4nnc(S(N)(=O)=O)s4)(C2)C3)nn1)C(=O)O)C(=O)O.[Lu+3] [Compound 109.30] | 2.5 to 10 | < 1 | 
NS(=O)(=O)c1nnc(NC(=O)C23CC(c4cn(CCNC(=O)[C@@H]5CN(C(=O)CN6CCN(CC(=O)O)CCN(CC(=O)O)CCN(CC(=O)O)CC6)CCN5C(=O)C[C@H](NC(=O)C[C@H](NC(=O)c5cc(C(F)(F)F)[nH]n5)C(=O)O)C(=O)O)nn4)(C2)C3)s1.[Lu+3] [Compound 109.6] | 2.5 to 10 | < 1 | 
NS(=O)(=O)c1nnc(NC(=O)C23CC(c4cn(CCNC(=O)[C@@H]5CN(C(=O)CN6CCN(CC(=O)O)CCN(CC(=O)O)CCN(CC(=O)O)CC6)CCN5C(=O)C[C@H](NC(=O)C[C@H](NC(=O)c5coc(C6CC6)n5)C(=O)O)C(=O)O)nn4)(C2)C3)s1.[Lu+3] [Compound 109.8] | 2.5 to 10 | 1 to 2.5 | 
CC(CCC(=O)N[C@@H](CC(=O)N[C@@H](CC(=O)N1CCN(C(=O)CN2CCN(CC(=O)O)CCN(CC(=O)O)CCN(CC(=O)O)CC2)C[C@H]1CCCCn1cc(C23CCC(C(=O)Nc4nnc(S(N)(=O)=O)s4)(CC2)C3)nn1)C(=O)O)C(=O)O)(c1ccc(O)cc1)c1ccc(O)cc1 [Compound 104.1] |  |  | Kd (human CA-XII; Chelated Metal: None, 25° C., pH 7.4, read-out: CAXII KD): < 1 nM; Kd (human CA-IX; Chelated Metal: None; SPR, 25° C., pH 7.4; read-out: CAIX KD): < 1 nM; Ratio (CAXII/CAIX) (human CA-IX; KD ratio CAXII/CAIX; Chelated Metal: None): * (1 < * < 5)
CC(CCC(=O)N[C@@H](CC(=O)N[C@@H](CC(=O)N[C@@H](CCCCN1CCN(c2ccc(C(=O)Nc3nnc(S(N)(=O)=O)s3)cc2)CC1)C(=O)NCCOCCOCCNC(=O)CN1CCN(CC(=O)O)CCN(CC(=O)O)CCN(CC(=O)O)CC1)C(=O)O)C(=O)O)(c1ccc(O)cc1)c1ccc(O)cc1.[Lu+3] [Compound 121] |  |  | Kd (human CA-XII; [3]): > 10 nM; Kd (human CA-IX; [4]): < 1 nM
CC(CCCC(=O)N1CCC(C(N)=O)(C(=O)NCC(=O)N2CCN(C(=O)CN3CCN(CC(=O)O)CCN(CC(=O)O)CCN(CC(=O)O)CC3)C[C@H]2C(=O)NCCn2cc(C34CC(C(=O)Nc5nnc(S(N)(=O)=O)s5)(C3)C4)nn2)CC1)(c1ccc(O)cc1)c1ccc(O)cc1.[Lu+3] [Compound 107] | > 10 | < 1 | 
CC(CCCC(=O)N1CCC(C(=O)O)(C(=O)NCC(=O)N[C@@H](CCCCn2cc(C34CC(C(=O)Nc5nnc(S(N)(=O)=O)s5)(C3)C4)nn2)C(=O)NCCOCCOCCNC(=O)CN2CCN(CC(=O)O)CCN(CC(=O)O)CCN(CC(=O)O)CC2)CC1)(c1ccc(O)cc1)c1ccc(O)cc1.[Lu+3] [Compound 102.6] | > 10 | < 1 | 
CC(CCOC(=O)N1CCC(C(N)=O)(C(=O)NCC(=O)N2CCN(C(=O)CN3CCN(CC(=O)O)CCN(CC(=O)O)CCN(CC(=O)O)CC3)C[C@H]2C(=O)NCCn2cc(C34CC(C(=O)Nc5nnc(S(N)(=O)=O)s5)(C3)C4)nn2)CC1)(c1ccc(O)cc1)c1ccc(O)cc1.[Lu+3] [Compound 107.57] | > 10 | 1 to 2.5 | 
